Measurements as given in ChEMBL document CHEMBL1201862, “PubChem BioAssay data set” (2004).
Each block holds one molecule with its values, some of them ahead of it. The source made the active and inactive calls.

Key:
[1] = molecular target: Glyceraldehyde-3-phosphate dehydrogenase (Homo sapiens, UniProt P04406)
Bcl-2-related protein A1 [2] = molecular target: T1, Bcl-2-related protein A1 (Mus musculus, UniProt Q07440); experiment: small-molecule antagonists of Bfl-1/BH3 interaction – biochemical, TR-FRET, mouse Bfl-1, confirmation (AID 621);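 further: TR-FRET binding of GST-Bfl-1 to FITC-labelled Bid peptide via terbium antibody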
T1 sequence (Q07440 whole entry): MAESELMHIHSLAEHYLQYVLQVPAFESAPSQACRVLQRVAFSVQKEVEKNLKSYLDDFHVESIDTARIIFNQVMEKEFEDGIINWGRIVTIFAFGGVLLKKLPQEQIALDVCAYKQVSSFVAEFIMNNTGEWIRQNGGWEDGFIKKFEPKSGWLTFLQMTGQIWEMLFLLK

Bcl-2-related protein A1 [3] = molecular target: T1, Bcl-2-related protein A1; experiment: Bfl-1 binding inhibitors, SAR follow-up, biochemical, fluorescence polarization (AID 1070)
[4] = molecular target: Luciferin 4-monooxygenase (Photinus pyralis, UniProt P08659); experiment: inhibition of purified Photinus pyralis luciferase – biochemical, luminescence, dose response (AID 1891)
Sequence of Luciferin 4-monooxygenase (P08659 whole entry): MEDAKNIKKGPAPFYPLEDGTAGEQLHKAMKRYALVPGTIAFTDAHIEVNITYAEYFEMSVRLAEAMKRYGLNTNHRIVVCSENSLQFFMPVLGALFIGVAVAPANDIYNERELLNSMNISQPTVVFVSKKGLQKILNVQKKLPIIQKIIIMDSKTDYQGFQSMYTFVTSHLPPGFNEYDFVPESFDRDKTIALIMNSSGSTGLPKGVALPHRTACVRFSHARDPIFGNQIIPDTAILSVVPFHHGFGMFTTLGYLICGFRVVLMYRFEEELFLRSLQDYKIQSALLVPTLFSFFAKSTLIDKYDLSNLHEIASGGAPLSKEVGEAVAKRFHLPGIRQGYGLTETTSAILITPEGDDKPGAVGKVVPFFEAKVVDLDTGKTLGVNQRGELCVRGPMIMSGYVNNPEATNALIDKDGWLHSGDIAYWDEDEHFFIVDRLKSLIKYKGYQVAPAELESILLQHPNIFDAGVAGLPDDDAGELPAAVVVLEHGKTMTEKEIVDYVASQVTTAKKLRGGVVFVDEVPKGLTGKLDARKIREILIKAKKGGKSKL

[5] = Luminescence Cell-Based Dose Confirmation HTS to Identify Inhibitors of Platelet Dense Granule Release. [Related pubchem assays: 1663 (Primary HTS), 1678 (Summary of Project)]; format: functional
[6] = Fluorescence Cell-Based Dose Response to Identify Inhibitors of Thrombin Receptor-Activating Peptide SFLLRN-Mediated P-Selectin Induction on Platelets. [Related pubchem assays: 1663 (Primary HTS), 1889 (retest at dose ), 1891 (counterscreen), 1678 (Project Summary)]; format: functional
Beta-galactosidase = Beta-galactosidase (Escherichia coli, UniProt Q8VNN2); experiment: detection-enzyme interference by beta-gal modulators – biochemical, E. coli enzyme, set 3, artefact control for CCR6 antagonist project, dose response (AID 504712); format: functional
Sequence of Beta-galactosidase (Q8VNN2 whole entry): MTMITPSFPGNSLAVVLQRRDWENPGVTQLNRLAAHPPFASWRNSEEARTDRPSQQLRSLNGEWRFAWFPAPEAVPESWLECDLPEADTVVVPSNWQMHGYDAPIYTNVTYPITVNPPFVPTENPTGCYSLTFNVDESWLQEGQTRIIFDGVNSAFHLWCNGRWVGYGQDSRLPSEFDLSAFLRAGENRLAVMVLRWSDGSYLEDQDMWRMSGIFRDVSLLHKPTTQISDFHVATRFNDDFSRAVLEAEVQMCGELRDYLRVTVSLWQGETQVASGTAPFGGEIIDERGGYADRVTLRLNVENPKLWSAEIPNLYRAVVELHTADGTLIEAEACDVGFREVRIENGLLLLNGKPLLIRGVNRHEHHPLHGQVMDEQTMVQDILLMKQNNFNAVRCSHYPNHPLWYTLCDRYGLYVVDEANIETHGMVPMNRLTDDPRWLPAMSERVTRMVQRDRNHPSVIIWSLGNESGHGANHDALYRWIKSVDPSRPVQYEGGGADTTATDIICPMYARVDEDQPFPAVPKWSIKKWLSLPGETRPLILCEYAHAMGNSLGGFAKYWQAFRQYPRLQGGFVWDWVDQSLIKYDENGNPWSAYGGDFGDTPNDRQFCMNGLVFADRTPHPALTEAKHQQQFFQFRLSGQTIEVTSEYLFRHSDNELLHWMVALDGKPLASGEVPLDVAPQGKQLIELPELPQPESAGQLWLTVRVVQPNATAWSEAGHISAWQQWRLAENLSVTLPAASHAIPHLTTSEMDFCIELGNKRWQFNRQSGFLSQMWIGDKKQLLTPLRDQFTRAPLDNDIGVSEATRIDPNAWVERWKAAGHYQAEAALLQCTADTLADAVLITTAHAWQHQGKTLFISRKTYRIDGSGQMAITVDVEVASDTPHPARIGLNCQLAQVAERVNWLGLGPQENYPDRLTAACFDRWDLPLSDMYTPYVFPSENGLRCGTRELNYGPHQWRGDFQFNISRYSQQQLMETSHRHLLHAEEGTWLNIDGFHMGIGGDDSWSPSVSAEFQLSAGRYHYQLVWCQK

[7] = molecular target: T2, Heat shock factor protein 1 (Mus musculus, UniProt P38532); experiment: enhancement of HSF1-driven luciferase signal – cell-based, NIH3T3, luminescence, dose retest, confirmation (AID 435004); format: functional;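 further: stress induced by proteasome inhibitor MG132 added 30 min after compound; luciferase reporter driven by HSF1 response element in NIH3T3 cells; actives raise luminescence as potentiators of the MG132 stress response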
T2 sequence (P38532 whole entry): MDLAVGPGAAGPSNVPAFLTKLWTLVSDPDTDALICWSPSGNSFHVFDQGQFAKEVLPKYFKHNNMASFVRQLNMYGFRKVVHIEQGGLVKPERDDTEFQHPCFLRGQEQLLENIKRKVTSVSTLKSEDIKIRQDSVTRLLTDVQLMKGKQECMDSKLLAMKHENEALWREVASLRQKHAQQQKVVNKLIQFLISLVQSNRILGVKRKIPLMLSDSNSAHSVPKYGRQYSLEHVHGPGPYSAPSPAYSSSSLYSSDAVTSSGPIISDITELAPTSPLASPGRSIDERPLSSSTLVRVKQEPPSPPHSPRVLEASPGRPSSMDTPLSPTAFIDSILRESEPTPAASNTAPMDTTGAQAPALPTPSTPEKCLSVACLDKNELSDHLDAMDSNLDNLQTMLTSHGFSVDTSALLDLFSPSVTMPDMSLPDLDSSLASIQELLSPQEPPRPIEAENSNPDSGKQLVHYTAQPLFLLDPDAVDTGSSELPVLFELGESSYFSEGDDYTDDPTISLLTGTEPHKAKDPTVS

[8] = Fluorescence-based cell-based high throughput dose response assay for inhibitors of the interaction of nucleotide-binding oligomerization domain containing 2 (NOD2) and the receptor-interacting serine-threonine kinase 2 (RIPK2).; format: functional; details: Homo sapiens
Beta Lactamase = Beta Lactamase (Pseudomonas aeruginosa, UniProt Q932Y6); experiment: BLA reporter interference, concentration series – BLA reporter cells, FRET fluorescence, artefact control for NOD2-RIPK2 interaction inhibitor project, dose response (AID 651552); format: functional, cell-based
Sequence of Beta Lactamase (Q932Y6 whole entry): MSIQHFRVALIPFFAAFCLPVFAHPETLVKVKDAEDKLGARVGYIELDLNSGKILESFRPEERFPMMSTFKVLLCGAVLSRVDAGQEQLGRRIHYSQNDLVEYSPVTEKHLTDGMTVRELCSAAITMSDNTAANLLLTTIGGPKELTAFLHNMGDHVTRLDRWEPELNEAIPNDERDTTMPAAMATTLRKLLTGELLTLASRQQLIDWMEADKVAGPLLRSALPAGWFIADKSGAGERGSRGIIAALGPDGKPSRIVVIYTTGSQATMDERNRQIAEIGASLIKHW

Cytochrome P450 2C19 = Cytochrome P450 2C19 (Homo sapiens, UniProt P33261); experiment: qHTS Assay for Inhibitors and Substrates of Cytochrome P450 2C19. [Related pubchem assays: 410 ]; format: ADME; details: read-out: Potency
Sequence of Cytochrome P450 2C19 (P33261 whole entry): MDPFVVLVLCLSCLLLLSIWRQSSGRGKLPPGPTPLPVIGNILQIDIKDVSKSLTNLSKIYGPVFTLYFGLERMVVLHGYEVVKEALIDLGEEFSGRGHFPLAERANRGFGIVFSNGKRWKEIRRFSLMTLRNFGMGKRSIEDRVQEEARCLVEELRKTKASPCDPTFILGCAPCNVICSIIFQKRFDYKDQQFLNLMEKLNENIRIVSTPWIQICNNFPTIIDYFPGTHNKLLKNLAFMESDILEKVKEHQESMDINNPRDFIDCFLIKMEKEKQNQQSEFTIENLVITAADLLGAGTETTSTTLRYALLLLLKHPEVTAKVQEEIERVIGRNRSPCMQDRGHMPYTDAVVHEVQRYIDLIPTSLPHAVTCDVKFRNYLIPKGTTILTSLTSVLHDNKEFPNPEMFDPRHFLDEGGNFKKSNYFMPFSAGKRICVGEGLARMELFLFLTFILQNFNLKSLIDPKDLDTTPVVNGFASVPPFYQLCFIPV

Cytochrome P450 2C9 = Cytochrome P450 2C9 (Homo sapiens, UniProt P11712); details: Potency
Sequence of Cytochrome P450 2C9 (P11712 whole entry): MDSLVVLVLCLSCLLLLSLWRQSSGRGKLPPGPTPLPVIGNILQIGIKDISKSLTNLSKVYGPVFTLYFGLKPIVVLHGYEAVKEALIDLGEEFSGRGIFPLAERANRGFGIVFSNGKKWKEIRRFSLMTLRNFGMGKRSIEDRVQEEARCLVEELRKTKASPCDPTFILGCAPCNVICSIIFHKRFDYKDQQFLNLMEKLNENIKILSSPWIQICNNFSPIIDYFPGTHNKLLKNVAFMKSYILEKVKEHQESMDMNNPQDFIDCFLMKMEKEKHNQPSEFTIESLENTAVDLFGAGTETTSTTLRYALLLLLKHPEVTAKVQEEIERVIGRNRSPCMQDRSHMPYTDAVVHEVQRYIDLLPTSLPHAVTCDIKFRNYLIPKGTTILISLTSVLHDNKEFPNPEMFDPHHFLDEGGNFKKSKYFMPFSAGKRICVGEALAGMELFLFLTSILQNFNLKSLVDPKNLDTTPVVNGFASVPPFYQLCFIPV

Aspartyl aminopeptidase = Aspartyl aminopeptidase (Plasmodium falciparum 3D7, UniProt Q8I2J3); experiment: Counterscreen for inhibitors of M1 and M17 aminopeptidases: QFRET-based biochemical high throughput dose response assay for inhibitors of the Plasmodium falciparum M18 Aspartyl Aminopeptidase (PFM18AAP). [Related PubChem assays: 1619 (Screening assay (M17LAP inhibitors).), 1445 (Screening assay (M1AAP inhibitors).)]
Sequence of Aspartyl aminopeptidase (Q8I2J3 whole entry): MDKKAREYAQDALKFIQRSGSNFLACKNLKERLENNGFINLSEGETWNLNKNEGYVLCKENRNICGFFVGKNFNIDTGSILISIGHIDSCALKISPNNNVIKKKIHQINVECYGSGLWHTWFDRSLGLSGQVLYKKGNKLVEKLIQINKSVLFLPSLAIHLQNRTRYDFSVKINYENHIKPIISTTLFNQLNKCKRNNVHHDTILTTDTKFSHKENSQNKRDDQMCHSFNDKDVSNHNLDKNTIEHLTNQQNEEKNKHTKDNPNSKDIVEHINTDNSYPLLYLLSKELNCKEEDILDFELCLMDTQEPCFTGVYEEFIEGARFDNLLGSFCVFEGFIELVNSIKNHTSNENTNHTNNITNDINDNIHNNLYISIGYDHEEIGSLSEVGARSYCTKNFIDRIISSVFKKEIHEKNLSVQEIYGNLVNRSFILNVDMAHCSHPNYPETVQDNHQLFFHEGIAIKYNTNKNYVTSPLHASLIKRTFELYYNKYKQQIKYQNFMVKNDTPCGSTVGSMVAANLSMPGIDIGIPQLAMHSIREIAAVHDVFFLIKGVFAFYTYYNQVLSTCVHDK

Aminopeptidase N = molecular target: T3, Aminopeptidase N (Plasmodium falciparum FcB1/Columbia, UniProt O96935); experiment: malaria alanyl aminopeptidase activity blockers – biochemical, fluorogenic H-Leu-NHMec substrate, 1536-well (AID 1445); design: species or system Plasmodium falciparum 3D7, 3D7
T3 sequence (O96935 whole entry): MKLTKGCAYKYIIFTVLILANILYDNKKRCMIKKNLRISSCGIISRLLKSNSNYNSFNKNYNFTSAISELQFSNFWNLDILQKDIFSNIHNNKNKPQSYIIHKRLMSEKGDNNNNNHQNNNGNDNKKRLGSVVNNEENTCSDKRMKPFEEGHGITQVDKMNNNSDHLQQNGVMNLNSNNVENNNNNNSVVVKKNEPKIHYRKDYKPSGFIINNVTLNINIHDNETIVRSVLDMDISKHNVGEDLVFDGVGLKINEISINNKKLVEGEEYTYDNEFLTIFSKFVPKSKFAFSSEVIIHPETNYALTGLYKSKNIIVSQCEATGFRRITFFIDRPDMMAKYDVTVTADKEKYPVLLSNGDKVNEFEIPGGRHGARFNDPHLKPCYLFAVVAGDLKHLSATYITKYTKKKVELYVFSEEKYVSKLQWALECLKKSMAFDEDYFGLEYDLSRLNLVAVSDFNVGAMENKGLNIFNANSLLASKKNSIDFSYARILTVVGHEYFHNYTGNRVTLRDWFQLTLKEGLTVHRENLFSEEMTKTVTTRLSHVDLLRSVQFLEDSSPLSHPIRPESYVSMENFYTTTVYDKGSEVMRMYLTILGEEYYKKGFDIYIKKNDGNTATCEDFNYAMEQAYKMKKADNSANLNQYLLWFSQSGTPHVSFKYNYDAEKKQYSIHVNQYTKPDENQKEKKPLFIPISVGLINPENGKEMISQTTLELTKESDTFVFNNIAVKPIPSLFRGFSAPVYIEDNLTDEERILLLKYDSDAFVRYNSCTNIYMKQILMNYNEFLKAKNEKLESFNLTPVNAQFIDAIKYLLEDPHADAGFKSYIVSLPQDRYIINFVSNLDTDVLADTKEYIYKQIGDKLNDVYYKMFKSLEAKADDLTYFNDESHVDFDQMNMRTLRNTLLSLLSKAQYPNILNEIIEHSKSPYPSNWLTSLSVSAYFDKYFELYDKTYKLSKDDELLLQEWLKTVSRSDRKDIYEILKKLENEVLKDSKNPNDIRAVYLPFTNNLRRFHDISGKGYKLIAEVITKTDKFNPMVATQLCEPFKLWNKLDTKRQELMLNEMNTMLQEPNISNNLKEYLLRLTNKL

Procathepsin L = Procathepsin L (Homo sapiens, UniProt P07711); experiment: CTSL1 protease inhibition – biochemical, QFRET, 1536-well, counter-screen for M1/M17 aminopeptidase inhibitor project, dose response (AID 2214)
Sequence of Procathepsin L (P07711 whole entry): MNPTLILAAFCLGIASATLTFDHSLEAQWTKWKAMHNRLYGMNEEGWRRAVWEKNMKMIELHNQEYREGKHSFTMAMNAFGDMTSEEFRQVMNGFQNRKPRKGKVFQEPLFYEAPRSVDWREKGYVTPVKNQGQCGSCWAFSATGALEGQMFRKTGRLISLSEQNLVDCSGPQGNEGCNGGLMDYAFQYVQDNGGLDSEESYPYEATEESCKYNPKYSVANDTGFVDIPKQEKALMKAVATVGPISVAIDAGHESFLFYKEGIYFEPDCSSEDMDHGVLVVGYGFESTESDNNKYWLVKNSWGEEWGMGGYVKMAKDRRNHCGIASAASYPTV

Sequence of Glyceraldehyde-3-phosphate dehydrogenase (P04406 whole entry): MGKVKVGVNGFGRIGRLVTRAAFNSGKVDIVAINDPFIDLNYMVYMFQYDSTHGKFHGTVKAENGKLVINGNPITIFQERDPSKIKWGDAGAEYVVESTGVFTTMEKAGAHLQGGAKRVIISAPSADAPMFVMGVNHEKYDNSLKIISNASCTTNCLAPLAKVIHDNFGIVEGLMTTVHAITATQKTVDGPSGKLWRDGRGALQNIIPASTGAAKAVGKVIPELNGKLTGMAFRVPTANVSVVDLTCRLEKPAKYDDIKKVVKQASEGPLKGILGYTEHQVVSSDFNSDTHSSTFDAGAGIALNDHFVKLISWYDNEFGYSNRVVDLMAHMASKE

IC50 [1]: > 100 µM (not active)
IC50 (Bcl-2-related protein A1 [2]): > 100 µM (not active)
IC50 (Bcl-2-related protein A1 [3]): > 100 µM (not active)
SMILES: O=C1C(Cl)=C(N2CCN(c3cccc(C(F)(F)F)c3)CC2)C(=O)N1c1ccc(Cl)c(Cl)c1

SMILES: Cc1ccc(NN2C(=O)C=C(c3ccccc3)C2=O)cc1
EC50 [4]: > 112 µM (not active)
EC50 [5]: 5.06 µM (active)
EC50 [6]: < 30 µM (active)
IC50 (Beta-galactosidase): > 66.6 µM (inactive)
EC50 [7]: 10.5 µM (active)
IC50 [8]: 1.72 µM (active)
IC50 (Beta Lactamase): 28.7 µM (inactive)

AC50 (Cytochrome P450 2C19): 31.6 µM (inconclusive)
AC50 (Cytochrome P450 2C9): 31.6 µM (inconclusive)
SMILES: COc1ccc(C(=O)[C@H]2[C@H]3[C@@H](C(=O)[C@@H]4OC[C@H]3O4)[C@H]3C=Cc4ccccc4N32)c(OC)c1

IC50 (Aspartyl aminopeptidase): > 73.5 µM (not active)
IC50 (Aminopeptidase N): 18.6 µM (active)
IC50 (Procathepsin L): > 59.6 µM (not active)
SMILES: O=C(NCc1ccco1)C1CCCN(S(=O)(=O)c2cccc3nonc23)C1 (stereo not given)
